The source made the active and inactive calls. The rule behind the calls is not given here.
How the values were obtained:
A549 [1] = assay: Antiproliferative activity against human A549 cells at 10 ug/ml; format: functional, cell-based
DU-145 [2] = assay: Antiproliferative activity against human DU145 cells at 10 ug/ml; format: functional, cell-based
KB [3] = assay: Antiproliferative activity against human KB cells at 10 ug/ml; format: functional, cell-based
KBVIN = assay: Antiproliferative activity against human KBVIN cells at 10 ug/ml; format: functional, cell-based
A549 [4] = assay: Antiproliferative activity against human A549 cells; format: functional, cell-based
DU-145 [5] = assay: Antiproliferative activity against human DU145 cells; format: functional, cell-based
KB [6] = assay: Antiproliferative activity against human KB cells; format: functional, cell-based
[7] = Antiproliferative activity against human KBVIN cells; format: functional, cell-based
HeLa-GFP = assay: Inhibition of proteasome in human HeLa-GFP cells at 10 ug/ml
[8] = Inhibition of chymotrypsin-like activity of human 20s proteasome

Row | IC50 (A549 [4]) [µM] | IC50 (DU-145 [5]) [µM] | IC50 (KB [6]) [µM] | inhibition (HeLa-GFP) | IC50 [8] [µM] | SMILES | inhibition (A549 [1]) | inhibition (DU-145 [2]) | inhibition (KB [3]) | inhibition (KBVIN) | IC50 [7] [µM]
1 | 9.64 | 10.5 | 10.4 | inactive |  | COc1cc(NC(=O)c2ccc(NC3=C(Cl)C(=O)c4ccccc4C3=O)cc2)cc(OC)c1 |  |  |  |  | 11.3
2 | 12.2 | 10.8 | 9.57 | inactive | 18.6 | O=C1C(Cl)=C(Nc2ccc(S(=O)(=O)Nc3ccccn3)cc2)C(=O)c2ccccc21 |  |  |  |  | 11.7
3 |  |  |  |  | 10.1 | CC(=O)N[C@@H](CSC(=O)[C@]1([C@@H](O)C(C)C)NC(=O)[C@H](C)[C@@H]1O)C(=O)O [LACTACYSTIN] |  |  |  |  | 
4 | 20.4 | 18.1 | 16.2 | inactive |  | O=C1C(Cl)=C(NCCCN2CCCC2=O)C(=O)c2ccccc21 |  |  |  |  | 19.1
5 | 12.5 | 13.7 | 14 | inactive |  | O=C1C(Cl)=C(Nc2ccc(C(=O)N3CCOCC3)cc2)C(=O)c2ccccc21 |  |  |  |  | 14.5
6 | 23.2 | 18.3 | 16.6 | Active | 3.65 | O=C1C(Cl)=C(Nc2ccc([N+](=O)[O-])cc2)C(=O)c2ccccc21 |  |  |  |  | 18.3
7 | 2.9 | 4.55 | 8.12 | inactive |  | O=C1C(Cl)=C(Nc2ccc(Oc3ccccc3)cc2)C(=O)c2ccccc21 |  |  |  |  | 1.3
8 | 18.8 | 15.8 | 12.9 | inactive |  | O=C1C(Cl)=C(Nc2ccc(N3CCOCC3)cc2)C(=O)c2ccccc21 |  |  |  |  | 14.2

The next lines start with the molecule.

Row | SMILES | IC50 (A549 [4]) [µM] | IC50 (DU-145 [5]) [µM] | IC50 (KB [6]) [µM] | inhibition (HeLa-GFP) | IC50 [8] [µM] | inhibition (A549 [1]) | inhibition (DU-145 [2]) | inhibition (KB [3]) | inhibition (KBVIN) | IC50 [7] [µM]
9 | O=C(Nc1ccc(NC2=C(Cl)C(=O)c3ccccc3C2=O)cc1)c1ccccn1 |  |  |  |  |  | inactive | inactive | inactive | inactive | 
10 | COc1ccc(C(=O)Nc2ccc(NC3=C(Cl)C(=O)c4ccccc4C3=O)cc2)cc1 |  |  |  |  |  | inactive | inactive | inactive | inactive | 
11 | COc1ccc(CC(=O)Nc2ccc(NC3=C(Cl)C(=O)c4ccccc4C3=O)cc2)cc1 |  |  |  |  |  | inactive | inactive | inactive | inactive | 
12 | O=C(NCCc1ccccc1)c1ccc(NC2=C(Cl)C(=O)c3ccccc3C2=O)cc1 |  |  |  |  |  | inactive | inactive | inactive | inactive | 
13 | O=C1C(Cl)=C(NCCc2cccs2)C(=O)c2ccccc21 |  |  |  |  |  | inactive | inactive | inactive | inactive | 
14 | O=C1C(Cl)=C(Nc2ccc3c(c2)OCO3)C(=O)c2ccccc21 |  |  |  |  |  | inactive | inactive | inactive | inactive | 
15 | O=C(Nc1ccccn1)c1ccc(NC2=C(Cl)C(=O)c3ccccc3C2=O)cc1 |  |  |  |  |  | inactive | inactive | inactive | inactive | 
16 | O=C1C(Cl)=C(NCCN2CCOCC2)C(=O)c2ccccc21 |  |  |  |  |  | inactive | inactive | inactive | inactive | 

Source: ChEMBL document CHEMBL2016438, “Design and synthesis of naphthoquinone derivatives as antiproliferative agents and 20S proteasome inhibitors” (Bioorg Med Chem Lett, 2012)
